Results taken from publication PMC12645437, “Orthogonal IMiD-Degron Pairs Induce Selective Protein Degradation in Cells” (ACS Chemical Biology, 2025).
Where “and” joins values, the source holds several entries; their conditions need not be identical. Equal values may be shown once.

Experiments:
[1] = target: APIS mutant ZF degron fused to EGFP (Homo sapiens, UniProt Q96SW2+Q9UKT9, N149P/Q147A/Q150I); experiment: Ratiometric EGFP:mCherry flow cytometry degradation assay, 18 h
[2] = target: WNIQ mutant ZF degron fused to EGFP (Homo sapiens, UniProt Q96SW2+Q9UKT9, Q147W/Q150I/S154Q); experiment: as above
Chain of WNIQ mutant ZF degron fused to EGFP (Q9UKT9 130-189 Q147W/Q150I/S154Q): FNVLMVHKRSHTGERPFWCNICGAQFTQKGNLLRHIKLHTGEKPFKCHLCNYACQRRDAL
Chain of WNIQ mutant ZF degron fused to EGFP (Q96SW2 whole entry, the tested form may be a part): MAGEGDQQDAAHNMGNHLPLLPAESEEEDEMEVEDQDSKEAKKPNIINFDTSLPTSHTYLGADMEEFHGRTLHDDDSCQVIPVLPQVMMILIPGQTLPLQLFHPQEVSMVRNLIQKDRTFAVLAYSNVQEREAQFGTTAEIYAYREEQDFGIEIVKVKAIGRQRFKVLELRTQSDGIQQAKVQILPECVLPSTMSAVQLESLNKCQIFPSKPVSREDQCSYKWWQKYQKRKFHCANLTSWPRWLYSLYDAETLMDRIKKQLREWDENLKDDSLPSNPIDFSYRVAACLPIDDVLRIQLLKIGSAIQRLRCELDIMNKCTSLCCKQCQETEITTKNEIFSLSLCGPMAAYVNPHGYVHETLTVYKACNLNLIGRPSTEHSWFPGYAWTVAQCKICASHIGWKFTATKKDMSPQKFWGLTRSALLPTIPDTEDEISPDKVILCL
Chain of WNIQ mutant ZF degron fused to EGFP (Q16531 whole entry partner, the tested form may be a part): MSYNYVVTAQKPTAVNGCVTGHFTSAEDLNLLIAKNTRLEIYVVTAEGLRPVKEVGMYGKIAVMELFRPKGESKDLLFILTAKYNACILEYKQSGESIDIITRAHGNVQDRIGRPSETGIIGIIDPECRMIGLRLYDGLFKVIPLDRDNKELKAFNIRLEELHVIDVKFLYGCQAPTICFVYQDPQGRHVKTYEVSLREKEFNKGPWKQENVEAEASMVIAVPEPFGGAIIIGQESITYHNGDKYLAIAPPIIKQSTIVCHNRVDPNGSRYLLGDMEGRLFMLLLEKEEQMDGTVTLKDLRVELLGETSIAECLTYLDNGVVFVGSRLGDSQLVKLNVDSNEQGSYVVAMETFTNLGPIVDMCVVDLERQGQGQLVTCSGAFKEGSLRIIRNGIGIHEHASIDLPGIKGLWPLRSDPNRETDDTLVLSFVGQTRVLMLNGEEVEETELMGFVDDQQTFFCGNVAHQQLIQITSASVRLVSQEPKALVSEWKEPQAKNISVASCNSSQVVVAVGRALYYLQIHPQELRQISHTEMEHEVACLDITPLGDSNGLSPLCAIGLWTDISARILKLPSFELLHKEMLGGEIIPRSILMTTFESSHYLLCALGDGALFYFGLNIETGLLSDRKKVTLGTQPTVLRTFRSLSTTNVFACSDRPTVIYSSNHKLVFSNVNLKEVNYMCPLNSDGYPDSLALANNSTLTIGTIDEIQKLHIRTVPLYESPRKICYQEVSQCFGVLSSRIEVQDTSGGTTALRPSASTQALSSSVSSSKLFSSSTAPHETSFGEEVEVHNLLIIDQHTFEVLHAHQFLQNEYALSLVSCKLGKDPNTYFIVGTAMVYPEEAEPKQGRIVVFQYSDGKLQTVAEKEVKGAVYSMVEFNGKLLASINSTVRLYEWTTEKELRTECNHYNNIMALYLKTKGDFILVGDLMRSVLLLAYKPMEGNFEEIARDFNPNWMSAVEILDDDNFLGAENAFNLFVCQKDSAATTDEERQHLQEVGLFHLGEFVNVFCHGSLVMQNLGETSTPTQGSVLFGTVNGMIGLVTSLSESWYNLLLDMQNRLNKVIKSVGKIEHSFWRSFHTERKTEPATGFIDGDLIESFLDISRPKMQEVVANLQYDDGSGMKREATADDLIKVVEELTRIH

Jurkat cells = experiment: Compound cellular stability HPLC assay; type: in vitro ADME, human; conditions: 25 μM
Protocol: We hypothesized that the time-dependent variation in DC50 values for compound 23 might result from instability in the cellular environment or export from the cells, leading to a lower cellular concentration after the 24 h period. To assess its cellular stability, we incubated Jurkat cells with 25 μM of compound 23 and analyzed how much compound was recovered from the cells after 0.5, 6, and 24 h (Figure S21) using HPLC analysis. […] The data also indicate that compound 23 is being metabolized, transported out of the cells, or both, over a 24 h period, explaining the increase in DC50 value by this time point (Figure G,H).
Figure S21. Assessing crude cellular stability of compound in 23 in mammalian cells using HPLC.
Jurkat cells were incubated with 25 µM of compound 23 for 0.5 h, 6 h, or 24 h. Cells were washed
with PBS and lysed with MeOH, clarified, and analyzed by HPLC. Compound 23 presence in the
lysate was assessed using HPLC at a UV/Vis absorbance of 190 nm. After 0.5 h we observed 130
incubating at rt for 3 minutes, then reading using an EnVision multimode plate reader
(PerkinElmer). The data have been expressed as % of DMSO control. Three biological repeats
were carried out for this assay, with each biological replicate plate comprising three replicate
Compound Cellular Stability HPLC Assay
Analytical HPLC assay to identify compound 23 in mammalian cell lysate. Jurkat cells were
cultured as described previously and seeded at a density of 2.5 × 10^5 cells per well in a 6-well
plate. Cells were treated with 25 µM of compound 23 or DMSO, keeping the final concentration
either 0.5 h, 6 h, or 24 h. Cells were then pelleted, supernatant removed, and cells were washed
twice with 1 mL of PBS, centrifuging each time at 6,500 rpm on a tabletop centrifuge to avoid
prematurely lysing the cells. PBS was then removed, and cells were lysed with 100 µL of HPLC- […]
0.1% formic acid. […] Samples were read using a Shimadzu system […]
processed using LabSolutions (Version 5.117). Sample components were measured using the UV
absorbance at 190 nm and 254 nm. The reported analysis is the UV absorbance at 190 nm. […]

endogenous GSPT1 = target: T1, endogenous GSPT1 (Homo sapiens, UniProt P15170); experiment: Western blot for GSPT1 in WEIS-EGFP Jurkat cells; type: cell-based; conditions: Jurkat transduced with EGFP-WEIS, 18 h
T1 construct: endogenous in cells; host or cells: Jurkat transduced with WEIS-EGFP
T1 sequence (P15170 whole entry): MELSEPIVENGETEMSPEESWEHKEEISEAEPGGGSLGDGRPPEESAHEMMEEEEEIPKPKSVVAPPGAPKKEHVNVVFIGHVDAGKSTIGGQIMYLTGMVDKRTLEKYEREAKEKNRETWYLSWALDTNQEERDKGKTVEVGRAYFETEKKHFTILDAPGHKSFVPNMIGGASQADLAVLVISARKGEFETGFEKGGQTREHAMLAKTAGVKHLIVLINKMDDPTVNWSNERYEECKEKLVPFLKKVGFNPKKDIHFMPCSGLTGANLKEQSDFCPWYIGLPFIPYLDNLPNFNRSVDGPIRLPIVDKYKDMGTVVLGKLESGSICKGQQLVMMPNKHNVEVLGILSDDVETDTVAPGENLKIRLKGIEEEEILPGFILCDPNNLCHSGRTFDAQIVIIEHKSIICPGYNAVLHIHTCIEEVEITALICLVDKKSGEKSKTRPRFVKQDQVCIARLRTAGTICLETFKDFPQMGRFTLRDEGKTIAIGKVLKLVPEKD

HA-CDK9-WEIS = target: T2, HA-CDK9-WEIS (Homo sapiens, UniProt Q96SW2+Q9UKT9, N149E/Q147W/Q150I); experiment: HA antibody immunoblotting in HEK293T cells; type: cell-based; conditions: 18 h, Western blot
T2 construct: IKZF3 130aa-142aa 170-189aa fused to EGFP; CDK9 (protein of interest, fusion partner N-terminal of the degron); expressed in transfected cells; host or cells: HEK293T, lentivirally transduced (Cilantro2-derived plasmid, Addgene #74450, EGFP replaced by HA-POI-WEIS)
T2 sequence (Q9UKT9 130-189 Q147W/N149E/Q150I): as the sequence (Q9UKT9 130-189 Q147W/Q150I/S154Q) above, with N20E, Q25S counted along it
T2 sequence (Q96SW2 whole entry, the tested form may be a part): as the sequence (Q96SW2 whole entry, the tested form may be a part) above

HA-HPRT1-WEIS = target: T3, HA-HPRT1-WEIS (Homo sapiens, UniProt Q96SW2+Q9UKT9, N149E/Q147W/Q150I); experiment: HA antibody immunoblotting in HEK293T cells; type: cell-based; conditions: 18 h, Western blot
T3 construct: IKZF3 130aa-142aa 170-189aa fused to EGFP; HPRT1 (protein of interest, fusion partner N-terminal of the degron); expressed in transfected cells; host or cells: HEK293T, lentivirally transduced (Cilantro2-derived plasmid, Addgene #74450, EGFP replaced by HA-POI-WEIS)
T3 sequence (Q9UKT9 130-189 Q147W/N149E/Q150I): as the sequence (Q9UKT9 130-189 Q147W/Q150I/S154Q) above, with N20E, Q25S counted along it
T3 sequence (Q96SW2 whole entry, the tested form may be a part): as the sequence (Q96SW2 whole entry, the tested form may be a part) above

[3] = target: T4, TRIM28 with N-terminal WEIS degron tag and HiBit tag (Homo sapiens, UniProt Q96SW2+Q9UKT9, N149E/Q147W/Q150I); experiment: HiBiT luminescence degradation assay; type: cell-based; conditions: Jurkat, 24 h
T4 construct: pLVX-Sprout-IKZF3 130-189aa Q147W N149E Q150I (WEIS); TRIM28 (fusion partner / protein of interest, gene TRIM28, human entry Q13263 by my knowledge); expressed in transfected cells; host or cells: Jurkat, lentiviral transduction; endogenous TRIM28 knocked out by CRISPR
T4 sequence (Q9UKT9 130-189 Q147W/N149E/Q150I): as the sequence (Q9UKT9 130-189 Q147W/Q150I/S154Q) above, with N20E, Q25S counted along it
T4 sequence (Q96SW2 whole entry, the tested form may be a part): as the sequence (Q96SW2 whole entry, the tested form may be a part) above

[4] = target: T5, TRIM28 with C-terminal WEIS degron tag and HiBit tag (Homo sapiens, UniProt Q96SW2+Q9UKT9, N149E/Q147W/Q150I); experiment: HiBiT luminescence degradation assay; type: cell-based; conditions: Jurkat, 24 h
T5 construct: pLVX-Sprout-IKZF3 130-189aa Q147W N149E Q150I (WEIS); TRIM28 (fusion partner / protein of interest, gene TRIM28, human entry Q13263 by my knowledge); expressed in transfected cells; host or cells: Jurkat, lentiviral transduction; endogenous TRIM28 knocked out by CRISPR
T5 sequence (Q9UKT9 130-189 Q147W/N149E/Q150I): as the sequence (Q9UKT9 130-189 Q147W/Q150I/S154Q) above, with N20E, Q25S counted along it
T5 sequence (Q96SW2 whole entry, the tested form may be a part): as the sequence (Q96SW2 whole entry, the tested form may be a part) above

Chain of APIS mutant ZF degron fused to EGFP (Q9UKT9 130-189 Q147A/N149P/Q150I): as the sequence (Q9UKT9 130-189 Q147W/Q150I/S154Q) above, with W18A, N20P, Q25S counted along it
Chain of APIS mutant ZF degron fused to EGFP (Q96SW2 whole entry, the tested form may be a part): as the sequence (Q96SW2 whole entry, the tested form may be a part) above
Chain of APIS mutant ZF degron fused to EGFP (Q16531 whole entry partner, the tested form may be a part): as the sequence (Q16531 whole entry partner, the tested form may be a part) above

Compound	DC50 ([1]; APIS, Jurkat, 18 h) [nM]	pDC50 ([1]; APIS, Jurkat, 18 h)	Selectivity (WT/mutant) ([1]; DC50(WT)/DC50(APIS))	Selectivity (WT/mutant) ([2]; DC50(WT)/DC50(WNIQ))	DC50 ([2]; WNIQ, Jurkat, 18 h) [nM]	pDC50 ([2]; WNIQ, Jurkat, 18 h)	compound recovered from cells (HPLC) (Jurkat cells; after 0.5 h) [nM]	compound recovered from cells (HPLC) (Jurkat cells; after 6 h) [nM]	compound recovered from cells (HPLC) (Jurkat cells; after 24 h)	degradation of endogenous GSPT1 (Western blot) (endogenous GSPT1)	D max (HA-CDK9-WEIS) [%]	DC50 (HA-CDK9-WEIS) [nM]	D max (HA-HPRT1-WEIS) [%]	DC50 (HA-HPRT1-WEIS) [nM]	D max [3] [%]	DC50 [3] [nM]	DC50 [4] [nM]	D max ([4]; with 10 μM) [%]
CC(C)(C)c1ccc2c(c1)C(=O)N(C1CCC(=O)NC1=O)C2=O (stereo not drawn) [Compound 19]	74.1	7.13	10.2 and 10															
CN1CCN(c2ccc3c(c2)C(=O)N(C2CCC(=O)NC2=O)C3=O)CC1 (stereo not drawn) [Compound 23]				11.8	53.7	7.27	130	30	almost no compound remaining	showed no degradation	70	299	49	67.1	66	1270	125	83
